According to publication PMC7539012, “Hyperphosphorylated tau aggregation and cytotoxicity modulators screen identified prescription drugs linked to Alzheimer's disease and cognitive functions” (Scientific Reports, 2020):
Where a name gives a salt, the structure may show the parent alone.

tested on: T1, 1N4R p-tau; experiment: p-tau aggregation modulator screen of 1280-compound library (ThS fluorescence net change over 16 h); assay type: biochemical; set-up: key to PTAI>2SD: *: PTAI>2SD; key to PTAI>3SD: *: PTAI>3SD; details: not given;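 on ThS net change: 30 µM compound with 6 µM p-tau over 16 h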
T1 construct: made in house; host or cells: E. coli (PIMAX system)

Compound	ThS net change
CN(C)CCCN1c2ccccc2CCc2ccc(Cl)cc21 [Clomipramine hydrochloride]	307
Cc1c(Cl)cccc1Nc1ncccc1C(=O)O.NCCCC[C@H](N)C(=O)O [Clonixin Lysinate]	462
C[C@@H]1C[C@@H]([C@H](O)CC2CC(=O)NC(=O)C2)C(=O)[C@@H](C)C1 [Cycloheximide]	442
O=P1(N(CCCl)CCCl)NCCCO1 (stereo not drawn) [Cyclophosphamide]	440
COc1cccc2c1C(=O)c1c(O)c3c(c(O)c1C2=O)C[C@@](O)(C(C)=O)C[C@@H]3O[C@H]1C[C@H](N)[C@H](O)[C@H](C)O1 [Daunorubicin hydrochloride]	235
CC(=O)N(O)CCCCCNC(=O)CCC(=O)N(O)CCCCCNC(=O)CCC(=O)N(O)CCCCCN [Deferoxamine mesylate]	439
CC(=O)O[C@H]1CC[C@@]2(C)C(=CC[C@@H]3[C@@H]2CC[C@]2(C)C(=O)CC[C@@H]32)C1 [Dehydroisoandosterone 3-acetate]	423
CC[N+](CC)(CC(=O)Nc1c(C)cccc1C)Cc1ccccc1 [Denatonium benzoate]	448
Clc1ccc2c(c1)CCc1cccnc1C2=C1CCNCC1 [Desloratadine]	457
Cc1onc(-c2c(Cl)cccc2Cl)c1C(=O)N[C@@H]1C(=O)N2[C@@H]1SC(C)(C)[C@@H]2C(=O)[O-].O.[Na+] [Dicloxacillin sodium salt hydrate]	415

same assay, conditions: 1280-compound library screen; ThS fluorescence net change over 16 h

Compound	ThS net change
Cl.Clc1ccc(C(OCCN2CCCCC2)c2ccccc2)cc1 (stereo not drawn) [Cloperastine hydrochloride]	386
C#CCN(C)CCCOc1ccc(Cl)cc1Cl [Clorgyline hydrochloride]	400
Nc1cc(C(Cl)=C(Cl)Cl)c(S(N)(=O)=O)cc1S(N)(=O)=O [Clorsulon]	393
Clc1ccccc1C(c1ccccc1)(c1ccccc1)n1ccnc1 [Clotrimazole]	396
Cc1onc(-c2ccccc2Cl)c1C(=O)N[C@@H]1C(=O)N2[C@@H]1SC(C)(C)[C@@H]2C(=O)[O-].[Na+] [Cloxacillin sodium salt]	380
C[C@]12CCC(=O)C=C1CC[C@@H]1[C@@H]2C(=O)C[C@@]2(C)[C@H]1CC[C@]2(O)C(=O)CO [Cortisone]	403
CN(C)CCOC(=O)C(c1ccccc1)C1(O)CCCC1 (stereo not drawn) [Cyclopentolate hydrochloride]	412
Nc1ccn([C@@H]2O[C@H](CO)[C@@H](O)[C@@H]2O)c(=O)n1 [Cytarabine]	392
N[C@@H]1CON=C1O [D-cycloserine]	405
CN(C)/N=N/c1[nH]cnc1C(N)=O [Dacarbazine]	392
Nc1ccc(S(=O)(=O)c2ccc(N)cc2)cc1 [Dapsone]	382
C[N+](C)(C)CCCCCCCCCC[N+](C)(C)C [Decamethonium bromide]	390
NS(=O)(=O)c1cc(Cl)c(Cl)c(S(N)(=O)=O)c1 [Dichlorphenamide]	404
C/C=C(/C(=C/C)c1ccc(O)cc1)c1ccc(O)cc1 [Dienestrol]	410
CCN(CC)C(=O)N1CCN(C)CC1 [Diethylcarbamazine citrate]	391
CC(=O)OCC(=O)[C@@]1(OC(C)=O)[C@@H](C)C[C@H]2[C@@H]3C[C@H](F)C4=CC(=O)C=C[C@]4(C)[C@@]3(F)[C@@H](O)C[C@@]21C [Diflorasone Diacetate]	407

same assay, conditions: 1280-compound library screen; […]

Compound	ThS net change
CCN(CC)CCOc1ccc(/C(=C(/Cl)c2ccccc2)c2ccccc2)cc1.O=C(O)CC(O)(CC(=O)O)C(=O)O [Clomiphene citrate (Z,E)]	409
NC(=O)C(c1ccccc1)(c1ccccc1)[C@@H]1CCN(CCc2ccc3c(c2)CCO3)C1 [Darifenacin hydrobromide]	384
CCN[C@@H](C)Cc1cccc(C(F)(F)F)c1 [Dexfenfluramine hydrochloride]	397
CC(=O)Nc1c(I)c(NC(C)=O)c(I)c(C(=O)O)c1I.O.O [Diatrizoic acid dihydrate]	407
C[C@]12CC[C@H](O)C[C@H]1CC[C@@H]1[C@@H]2CC[C@]2(C)[C@@H](C3=CC(=O)OC3)CC[C@]12O [Digitoxigenin]	383

same assay, conditions: flag: p-tau aggregation inhibitor, ThS net change more than 2 SD from mean

Compound	PTAI>2SD
CN(C)[C@@H]1C(O)=C(C(N)=O)C(=O)[C@@]2(O)C(O)=C3C(=O)c4c(O)ccc(Cl)c4[C@@H](O)[C@H]3C[C@@H]12 [Demeclocycline hydrochloride]	*

same assay, conditions: flag: p-tau aggregation inhibitor, ThS net change more than 3 SD from mean

Compound	PTAI>3SD
NS(=O)(=O)c1cc2c(cc1Cl)NC(CC1CCCC1)NS2(=O)=O (stereo not drawn) [Cyclopenthiazide]	*

same assay, conditions: library screen, ThS fluorescence net change over 16 h with p-tau

Compound	ThS net change
CCCCCCC[N+](CC)(CC)CCCCc1ccc(Cl)cc1.Cc1ccc(S(=O)(=O)[O-])cc1 [Clofilium tosylate]	326
NS(=O)(=O)c1cc2c(cc1Cl)NC(CC1CCCC1)NS2(=O)=O (stereo not drawn) [Cyclopenthiazide]	0
O=C1CN(/N=C/c2ccc(-c3ccc([N+](=O)[O-])cc3)o2)C([O-])=N1.[Na+] [Dantrolene sodium salt]	286
CN(C)[C@@H]1C(O)=C(C(N)=O)C(=O)[C@@]2(O)C(O)=C3C(=O)c4c(O)ccc(Cl)c4[C@@H](O)[C@H]3C[C@@H]12 [Demeclocycline hydrochloride]	117
Cc1cc(N)c2ccccc2[n+]1CCCCCCCCCC[n+]1c(C)cc(N)c2ccccc21 [Dequalinium dichloride]	297
CC(=O)Oc1cccc2c1C(=O)c1c(OC(C)=O)cc(C(=O)O)cc1C2=O [Diacerein]	239
CCCCOc1cc(C(=O)NCCN(CC)CC)c2ccccc2n1 [Dibucaine]	296
CCN(CC)CCOC(=O)C1(C2CCCCC2)CCCCC1 [Dicyclomine hydrochloride]	282
O=c1[nH]cnc2c1ncn2[C@H]1CC[C@@H](CO)O1 [Didanosine]	321
O=C(O)c1cc(-c2ccc(F)cc2F)ccc1O [Diflunisal]	304

same assay, conditions: p-tau aggregation modulator screen of 1280-compound library; ThS fluorescence net change

Compound	ThS net change
Clc1cccc(Cl)c1N=C1NCCN1 [Clonidine hydrochloride]	330
C[C@@H]1CCC[C@H](C)N1NC(=O)c1ccc(Cl)c(S(N)(=O)=O)c1 [Clopamide]	369
CN1CCN(C2=Nc3cc(Cl)ccc3Nc3ccccc32)CC1 [Clozapine]	368
CC(=O)OCC(=O)[C@@]1(O)CC[C@H]2[C@@H]3CCC4=CC(=O)CC[C@]4(C)[C@H]3[C@@H](O)C[C@@]21C [Cortisol acetate]	369
O=C(O)c1cc(=O)c2c(OCC(O)COc3cccc4oc(C(=O)O)cc(=O)c34)cccc2o1 [Cromolyn disodium salt]	360
CN1CCN(C(c2ccccc2)c2ccccc2)CC1.Cl [Cyclizine hydrochloride]	377
CN1CCC(=C2c3ccccc3C=Cc3ccccc32)CC1 [Cyproheptadine hydrochloride]	375
COc1ccccc1N1CCN(CCCCNC(=O)c2ccc3ccccc3c2)CC1.Cl.Cl [DO 897/99]	374
N=C(N)N1CCc2ccccc2C1 [Debrisoquin sulfate]	360
C[C@H](CCC(=O)O)[C@H]1CC[C@H]2[C@@H]3C(=O)C[C@@H]4CC(=O)CC[C@]4(C)[C@H]3CC(=O)[C@]12C [Dehydrocholic acid]	331
CNCCCN1c2ccccc2CCc2ccccc21 [Desipramine hydrochloride]	365
CC(=O)OCC(=O)[C@@]1(O)[C@H](C)C[C@H]2[C@@H]3CCC4=CC(=O)C=C[C@]4(C)[C@@]3(F)[C@@H](O)C[C@@]21C [Dexamethasone acetate]	343
CC1=NS(=O)(=O)c2cc(Cl)ccc2N1 [Diazoxide]	354
CN(C)CCN1C(=O)c2ccccc2N(C)c2ccccc21.Cl [Dibenzepine hydrochloride]	368
O=C(O)Cc1ccccc1Nc1c(Cl)cccc1Cl [Diclofenac sodium]	376
O=c1oc2ccccc2c(O)c1Cc1c(O)c2ccccc2oc1=O [Dicumarol]	363

same assay, conditions: p-tau aggregation modulator screen of 1280-compound library; […]

Compound	ThS net change
COc1cc2c(c(OC)c1OC)-c1ccc(OC)c(=O)cc1[C@@H](NC(C)=O)CC2 [Colchicine]	336
CN(CCCCCCCCCCN(C)C(=O)Oc1cccc([N+](C)(C)C)c1)C(=O)Oc1cccc([N+](C)(C)C)c1 [Demecarium bromide]	377

same assay, conditions: p-tau aggregation modulator screen of the compound library, ThS fluorescence net change

Compound	ThS net change
COC(=O)[C@H](c1ccccc1Cl)N1CCc2sccc2C1 [Clopidogrel]	499
Cc1cc(C(C#N)c2ccc(Cl)cc2)c(Cl)cc1NC(=O)c1cc(I)cc(I)c1O (stereo not drawn) [Closantel]	423
C[C@]12C[C@H](O)[C@H]3[C@@H](CCC4=CC(=O)CC[C@@]43C)[C@@H]1CC[C@@H]2C(=O)CO [Corticosterone]	416
CN(C)CCC=C1c2ccccc2C=Cc2ccccc21 [Cyclobenzaprine hydrochloride]	414
CC(=O)O[C@]1(C(C)=O)CC[C@H]2[C@@H]3C=C(Cl)C4=CC(=O)[C@@H]5C[C@@H]5[C@]4(C)[C@H]3CC[C@@]21C [Cyproterone acetate]	432
C#C[C@]1(O)CC[C@H]2[C@@H]3CCC4=Cc5oncc5C[C@]4(C)[C@H]3CC[C@@]21C [Danazol]	495
CC(=O)OCC(=O)[C@@]12N=C(C)O[C@@H]1C[C@H]1[C@@H]3CCC4=CC(=O)C=C[C@]4(C)[C@H]3[C@@H](O)C[C@@]12C [Deflazacort]	420
CN1[C@@H]2CC[C@H]1CC(OC1c3ccccc3CCc3ccccc31)C2.O=C(O)CC(O)(CC(=O)O)C(=O)O (stereo partly drawn) [Deptropine citrate]	455
CC1(C)O[C@@H]2C[C@H]3[C@@H]4CCC5=CC(=O)C=C[C@]5(C)[C@H]4[C@@H](O)C[C@]3(C)[C@]2(C(=O)CO)O1 [Desonide]	440
N#CC(c1ccc(Cl)cc1)c1c(Cl)cc(-n2ncc(=O)[nH]c2=O)cc1Cl (stereo not drawn) [Diclazuril]	507
C[C@]12CC[C@H](O)C[C@H]1CC[C@@H]1[C@@H]2C[C@@H](O)[C@]2(C)[C@@H](C3=CC(=O)OC3)CC[C@]12O [Digoxigenin]	440
